# Results as given in patent US8507445B2, “Compositions and methods of use of targeting peptides for diagnosis and therapy of human cancer” (Board of Regents, The University of Texas System, priority 2002, dated 2013).
# Columns and labels:
# DU145 xenografts [1] = experiment: Biopanning of X2CX14CX2 phage library in tumor-bearing mice; format: in vivo, nude mice; conditions: third round, 76 translated clones
# Description: DU145 prostate tumor cells were injected subcutaneously into the right fat pad of nude mice. A large phage library (X2CX14CX2) was prepared as discussed above and 10^9 phage were injected into male tumor-bearing nude mice. After 24 hr circulation, tumors were removed and phage recovered from the tumors using the bulk method disclosed above. The recovered phage were amplified, titered and reinjected into a new set of tumor bearing nude mice. The biopanning protocol was repeated for a total of three rounds. Ninety-six phage clones recovered from the third round of biopanning were selected for sequencing. Translated sequences were obtained for 76 of the 96 clones.
# [2] = tested on: immunoglobulins from the serum of prostate cancer patient M; experiment: Biopanning on purified immunoglobulins from serum of prostate cancer patient M; format: binding, human; conditions: three rounds of panning; for phage exhibiting the sequence / total clones, 1994 Serum: early stage; for phage exhibiting the sequence / total clones, 1998 Serum: intermediate stage; for phage exhibiting the sequence / total clones, 2000 Serum: late stage
# Text: The methods used were similar to those described in Example 4. A subtraction protocol was used, in which IgG from a normal individual was coupled to protein G chromatography beads. A cyclic CX6C phage display library, prepared as described above, was exposed to the normal IgG's. […] Antibodies from patient M (prostate cancer patient) were attached to fresh protein G chromatograpy beads. […] This procedure was followed for three rounds of screening and targeting peptides against patient M's antibodies were obtained.
# Serum samples from the same patient were obtained from archival specimens and used to obtain targeting peptides. Patient M's serum from 1994 (early stage cancer), 1998 (intermediate stage) and 2000 (late stage) were used to obtain antibody targeting peptides as described above.
# [3] = tested on: immunoglobulins from the serum of metastatic prostate cancer patients; experiment: Biopanning of CX6C phage library on IgGs from serum of prostate cancer patients A, B, C; format: binding, human; conditions: for share of the clones analyzed: second and third rounds, patient A, B or C that yielded the peptide; for share of the clones in round II / share of the clones in round III: patient C
# Text: Sera was selected from patients diagnosed with androgen-dependent and androgen-independent prostate cancer. A CX6C peptide library was screened against this pool of IgGs in a two-step procedure. First, the peptide library was pre-cleared against a pool of purified IgGs from normal serum samples using Protein G affinity chromatography. This step removed peptides from the phage display library that bound to immunoglobulins from patients without prostate cancer. Next, the pre-cleared peptide library was screened against the pool of purified IgGs from the serum of prostate cancer patients. This step selected peptides binding specifically to IgGs elicited against prostate cancer.
# A 6-mer cyclic peptide (CX6C) phage display library was used for the biopanning. To select peptides specific to the serum antibodies of cancer patients, a pre-clearing stage was employed to remove non-specific peptides by pre-absorbing the peptide library onto purified IgGs from pooled normal serum (five healthy male individuals). The pre-cleared peptide library was screened onto the purified IgGs from the serum of prostate cancer patients. In brief, 10^9 transducing units (T.U.) of a CX6C cyclic peptide phage library were incubated with IgG antibodies from 50 μl of normal serum immobilized on 50 μl of protein G (Gibco BRL) for 1 hour at 4° C. This was followed by affinity selection on the immobilized IgG antibodies from prostate cancer patient serum for 2 hours at 4° C. Phage peptides specifically bound to IgGs elicited against prostate cancer were eluted with 100 μl of 0.1 M glycine buffer, pH 2.2, neutralized by the addition of 10 μl 1M Tris pH 9.0, and used to infect E. coli strain K91. Ten-fold serial dilutions of the infected solution were spread onto agar plates containing 40 μg/ml of tetracycline and grown overnight. Two hundred colonies were picked, amplified, and precipitated for a subsequent round of panning. A total of three rounds were performed. Individual phage clones were picked for PCR and the insert DNA was sequenced.
# DU145 xenografts [4] = experiment: Phage localization by anti-phage staining of tissues; format: in vivo, nude mice; conditions: 24 hour circulation
# Description: To determine the specificity of the prostate tumor targeting peptides, 10^9 phage carrying the targeting peptide sequences […] (SEQ ID NO:83) and […] (SEQ ID NO:84) were injected into nude mice bearing DU145 xenografts. After 24 hour circulation, tissue samples were obtained from tumor and control organs (kidney, brain, lung and spleen). Tissue samples were washed immediately in DMAM and fixed in 10% formalin for 48 hours at room temperature. Thin sections were stained for phage using anti-phage antibody (1:500 dilution) and detected using the DAKO LSAB+ system. […] This may be due to the tendency of spleen tissue to trap phage and other foreign particles in general as part of the reticuloendothelial system.
sequence,measurement,setting,value
TECRGASSGSVSGAATDCRD,number of times the sequence was obtained,DU145 xenografts [1],TECRGASSGSVSGAATDCRD (1)
CRDGYHHC,"phage exhibiting the sequence / total clones, 1994 Serum",[2],CRDGYHHC (1/22)
CTFAGSSC,"phage exhibiting the sequence / total clones, 1994 Serum",[2],CTFAGSSC (6/22)
same,"phage exhibiting the sequence / total clones, 1998 Serum",[2],CTFAGSSC (12/20)
same,"phage exhibiting the sequence / total clones, 2000 Serum",[2],CTFAGSSC (26/29)
KLCYRSSAGSELRPPEKCAY,number of times the sequence was obtained,DU145 xenografts [1],KLCYRSSAGSELRPPEKCAY (1)
CISSPSNC,"phage exhibiting the sequence / total clones, 1994 Serum",[2],CISSPSNC (1/22)
VECVMASASTDGTAAHPCKP,number of times the sequence was obtained,DU145 xenografts [1],VECVMASASTDGTAAHPCKP (1)
CKDRFERC,share of the clones analyzed,[3],100%
VVCFMERQMGTDVVSPMCVN,number of times the sequence was obtained,DU145 xenografts [1],VVCFMERQMGTDVVSPMCVN (1)
NQCSSLLTYQGWKRTKDCIP,number of times the sequence was obtained,DU145 xenografts [1],NQCSSLLTYQGWKRTKDCIP (1)
LRCPLEVDRPNRDPAFLCSQ,number of times the sequence was obtained,DU145 xenografts [1],LRCPLEVDRPNRDPAFLCSQ (1)
IGCNHPSPLGSTVVPTYCFK,number of times the sequence was obtained,DU145 xenografts [1],IGCNHPSPLGSTVVPTYCFK (3)
NRCMPGFLDDADSAASPCGS,number of times the sequence was obtained,DU145 xenografts [1],NRCMPGFLDDADSAASPCGS (1)
PNCYSGDGEISSHIPVQCLM,number of times the sequence was obtained,DU145 xenografts [1],PNCYSGDGEISSHIPVQCLM (1)
CNNMYAGC,"phage exhibiting the sequence / total clones, 1998 Serum",[2],CNNMYAGC (1/20)
NDCSAHAQPGWDEVPPMCNQ,number of times the sequence was obtained,DU145 xenografts [1],NDCSAHAQPGWDEVPPMCNQ (1)
CNSAFAGC,"phage exhibiting the sequence / total clones, 1994 Serum",[2],CNSAFAGC (1/22)
same,"phage exhibiting the sequence / total clones, 1998 Serum",[2],CNSAFAGC (1/20)
same,"phage exhibiting the sequence / total clones, 2000 Serum",[2],CNSAFAGC (1/29)
VFCCGSYCGGVEMLASRCGH,number of times the sequence was obtained,DU145 xenografts [1],VFCCGSYCGGVEMLASRCGH (2)
RECGRTVHRYPWGSPESCER,number of times the sequence was obtained,DU145 xenografts [1],RECGRTVHRYPWGSPESCER (2)
DACSRFLGERVDATAAGCSR,number of times the sequence was obtained,DU145 xenografts [1],DACSRFLGERVDATAAGCSR (2)
CAVKSVTC,"phage exhibiting the sequence / total clones, 1994 Serum",[2],CAVKSVTC (1/22)
GTCPRQFFHMQEFWPSDCSR,number of times the sequence was obtained,DU145 xenografts [1],GTCPRQFFHMQEFWPSDCSR (3)
CSYTFAGC,"phage exhibiting the sequence / total clones, 1994 Serum",[2],CSYTFAGC (1/22)
CNITQKSC,share of the clones in round II,[3],33.3%
same,share of the clones in round III,[3],0%
CPRSAKNC,"phage exhibiting the sequence / total clones, 2000 Serum",[2],CPRSAKNC (1/29)
HTCWGARDVAQPSGTVRCLK,number of times the sequence was obtained,DU145 xenografts [1],HTCWGARDVAQPSGTVRCLK (1)
TTCNKSMSSQPMRDSRECHR,number of times the sequence was obtained,DU145 xenografts [1],TTCNKSMSSQPMRDSRECHR (1)
NNCPVEGSQQNYSGATWCRA,number of times the sequence was obtained,DU145 xenografts [1],NNCPVEGSQQNYSGATWCRA (1)
CSKKFVTC,"phage exhibiting the sequence / total clones, 1998 Serum",[2],CSKKFVTC (3/20)
GNCMGLQVSELFMGPYKCRQ,number of times the sequence was obtained,DU145 xenografts [1],GNCMGLQVSELFMGPYKCRQ (2)
CNQSMWSC,"phage exhibiting the sequence / total clones, 1994 Serum",[2],CNQSMWSC (1/22)
ARCREDTGFMGLGSANICTD,number of times the sequence was obtained,DU145 xenografts [1],ARCREDTGFMGLGSANICTD (1)
CFETFAGC,"phage exhibiting the sequence / total clones, 1998 Serum",[2],CFETFAGC (1/20)
GPCAATGVNPGDHGAAVCDQ,number of times the sequence was obtained,DU145 xenografts [1],GPCAATGVNPGDHGAAVCDQ (1)
CQFENGTC,"phage exhibiting the sequence / total clones, 1994 Serum",[2],CQFENGTC (1/22)
LGCNKGRYWLSTRLSVSCAL,number of times the sequence was obtained,DU145 xenografts [1],LGCNKGRYWLSTRLSVSCAL (1)
PGCVVSPFALSAQGTSVCTI,number of times the sequence was obtained,DU145 xenografts [1],PGCVVSPFALSAQGTSVCTI (1)
RTCQVRSNNISPRMALACVT,number of times the sequence was obtained,DU145 xenografts [1],RTCQVRSNNISPRMALACVT (1)
LGCMASMLREFEGATHACTQ,"anti-phage staining of control kidney, brain or lung",DU145 xenografts [4],No staining was observed
same,anti-phage staining of normal spleen,DU145 xenografts [4],low level of anti-phage staining
same,anti-phage staining of tumor,DU145 xenografts [4],very heavy staining
MHCTSQTLRGTPSLAPKCSD,number of times the sequence was obtained,DU145 xenografts [1],MHCTSQTLRGTPSLAPKCSD (1)
DRCVLVRPEFGRGDARLCHS,number of times the sequence was obtained,DU145 xenografts [1],DRCVLVRPEFGRGDARLCHS (2)
TSCVRTGHDENLLKAAYCSS,number of times the sequence was obtained,DU145 xenografts [1],TSCVRTGHDENLLKAAYCSS (1)
RGCWRDSTAWHVSYPVECLA,number of times the sequence was obtained,DU145 xenografts [1],RGCWRDSTAWHVSYPVECLA (1)
CNGFMGYC,"phage exhibiting the sequence / total clones, 1994 Serum",[2],CNGFMGYC (1/22)
TLCRSLEHEVGLFKPRECPF,number of times the sequence was obtained,DU145 xenografts [1],TLCRSLEHEVGLFKPRECPF (1)
CHQKPWEC,share of the clones analyzed,[3],100%
EGCSDIMNTAAERVTGDCSY,number of times the sequence was obtained,DU145 xenografts [1],EGCSDIMNTAAERVTGDCSY (2)
CSASDLSC,"phage exhibiting the sequence / total clones, 1994 Serum",[2],CSASDLSC (2/22)
CQNQYPEC,"phage exhibiting the sequence / total clones, 1994 Serum",[2],CQNQYPEC (1/22)
same,"phage exhibiting the sequence / total clones, 1998 Serum",[2],CQNQYPEC (1/20)
WVCTSASQDTRLKEPGMCIA,number of times the sequence was obtained,DU145 xenografts [1],WVCTSASQDTRLKEPGMCIA (1)
VACDISAVERLPASARSCKT,number of times the sequence was obtained,DU145 xenografts [1],VACDISAVERLPASARSCKT (1)
RTCEEVRNRALEELTNFCPY,number of times the sequence was obtained,DU145 xenografts [1],RTCEEVRNRALEELTNFCPY (1)
RSCVNSDTGVLQRGAPSCLF,number of times the sequence was obtained,DU145 xenografts [1],RSCVNSDTGVLQRGAPSCLF (1)
CRASAMVC,"phage exhibiting the sequence / total clones, 1994 Serum",[2],CRASAMVC (1/22)
TLCPPASMGLGREKPRLCSV,number of times the sequence was obtained,DU145 xenografts [1],TLCPPASMGLGREKPRLCSV (1)
KICPVTNMWTTPSWAHKCGM,number of times the sequence was obtained,DU145 xenografts [1],KICPVTNMWTTPSWAHKCGM (1)
YSCTRLNGTGLQNPPSACDR,number of times the sequence was obtained,DU145 xenografts [1],YSCTRLNGTGLQNPPSACDR (1)
VRCNEAQLQDSGTVPHPCLR,number of times the sequence was obtained,DU145 xenografts [1],VRCNEAQLQDSGTVPHPCLR (1)
QHCVKGQFPFRESVTITCNS,number of times the sequence was obtained,DU145 xenografts [1],QHCVKGQFPFRESVTITCNS (1)
CSTFAGSC,"phage exhibiting the sequence / total clones, 1994 Serum",[2],CSTFAGSC (1/22)
CNWTDKTC,share of the clones in round II,[3],33.3%
same,share of the clones in round III,[3],7%
KSCGKYGLIVGQPFAEHCPP,number of times the sequence was obtained,DU145 xenografts [1],KSCGKYGLIVGQPFAEHCPP (1)
RGCTEAAGLVIGITTHQCGN,number of times the sequence was obtained,DU145 xenografts [1],RGCTEAAGLVIGITTHQCGN (3)
SRCHALRSQSVSTSAGACIS,number of times the sequence was obtained,DU145 xenografts [1],SRCHALRSQSVSTSAGACIS (1)
CNKTDKGC,share of the clones in round II,[3],16.7%
same,share of the clones in round III,[3],0%
CKNKHTTC,"phage exhibiting the sequence / total clones, 1998 Serum",[2],CKNKHTTC (1/20)
CFPKRVTC,"phage exhibiting the sequence / total clones, 2000 Serum",[2],CFPKRVTC (1/29)
PNCDLDDIVLNPYTAGPCGT,number of times the sequence was obtained,DU145 xenografts [1],PNCDLDDIVLNPYTAGPCGT (1)
CIDMTHQC,"phage exhibiting the sequence / total clones, 1994 Serum",[2],CIDMTHQC (1/22)
GDCETNNVTKVGGITRNCVG,number of times the sequence was obtained,DU145 xenografts [1],GDCETNNVTKVGGITRNCVG (1)
GYCLTVVGGAVLTLALLCVT,number of times the sequence was obtained,DU145 xenografts [1],GYCLTVVGGAVLTLALLCVT (1)
CLTSENAC,"phage exhibiting the sequence / total clones, 1994 Serum",[2],CLTSENAC (1/22)
